ChEMBL document CHEMBL5465560, “Selectivity Literature for EUbOPEN Chemogenomic Library” (2024)

Tests used:
[1] = biological target: Serine/threonine-protein kinase pim-3 (Homo sapiens) (UniProt Q86V86); assay: Selectivity interaction (Kinase panel (DSF assay)) EUB0001559a PIM3
[2] = biological target: T1, Serine/threonine-protein kinase 3 (Homo sapiens) (UniProt Q13188); assay: Selectivity interaction (Kinase panel (DSF assay)) EUB0001559a STK3
T1 sequence (whole entry): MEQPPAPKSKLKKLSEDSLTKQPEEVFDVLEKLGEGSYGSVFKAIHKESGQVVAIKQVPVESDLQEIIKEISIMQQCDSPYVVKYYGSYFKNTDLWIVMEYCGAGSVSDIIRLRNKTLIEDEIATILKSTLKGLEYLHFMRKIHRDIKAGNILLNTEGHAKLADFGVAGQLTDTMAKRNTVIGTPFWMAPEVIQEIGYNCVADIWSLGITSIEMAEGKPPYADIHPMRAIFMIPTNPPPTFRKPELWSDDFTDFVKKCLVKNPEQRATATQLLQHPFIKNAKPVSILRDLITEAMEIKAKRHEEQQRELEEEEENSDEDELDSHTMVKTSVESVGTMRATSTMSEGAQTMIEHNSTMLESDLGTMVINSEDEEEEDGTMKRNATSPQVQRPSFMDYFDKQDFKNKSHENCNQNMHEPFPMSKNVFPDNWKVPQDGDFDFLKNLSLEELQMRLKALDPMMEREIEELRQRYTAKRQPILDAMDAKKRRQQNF

[3] = biological target: 5'-AMP-activated protein kinase catalytic subunit alpha-2 (Homo sapiens) (UniProt P54646); assay: Selectivity interaction (KinomeScan (DiscoverX)) EUB0001079a PRKAA2; settings: at 1 µM
[4] = biological target: Tyrosine-protein kinase HCK (Homo sapiens) (UniProt P08631); assay: Selectivity interaction (KinaseProfiler screening (Millipore)) EUB0000601a HCK; settings: at 3 µM
[5] = biological target: Myosin-IIIa (Homo sapiens) (UniProt Q8NEV4); assay: Selectivity interaction (LanthaScreen Eu Kinase Binding Assay) EUB0001632a MYO3A; settings: at 10 µM
[6] = biological target: Serine/threonine-protein kinase haspin (Homo sapiens, UniProt Q8TF76)
[7] = biological target: Calcium/calmodulin-dependent protein kinase type 1 (Homo sapiens) (UniProt Q14012); assay: Selectivity interaction (ActivX KiNativ screen (kinase selectivity in THP-1 cell lysates)) EUB0000639a CAMK1; type: subcellular; settings: lysate, at 0.2 µM
[8] = biological target: BDNF/NT-3 growth factors receptor (Homo sapiens) (UniProt Q16620); assay: Selectivity interaction (Kinase panel (Invitrogen)) EUB0000639a NTRK2; settings: at 200 nM
[9] = biological target: T2, Ephrin type-A receptor 8 (Homo sapiens) (UniProt P29322); assay: Selectivity interaction (SelectScreen profiling (Invitrogen)) EUB0000607a EPHA8; settings: at 2 µM
T2 sequence (whole entry): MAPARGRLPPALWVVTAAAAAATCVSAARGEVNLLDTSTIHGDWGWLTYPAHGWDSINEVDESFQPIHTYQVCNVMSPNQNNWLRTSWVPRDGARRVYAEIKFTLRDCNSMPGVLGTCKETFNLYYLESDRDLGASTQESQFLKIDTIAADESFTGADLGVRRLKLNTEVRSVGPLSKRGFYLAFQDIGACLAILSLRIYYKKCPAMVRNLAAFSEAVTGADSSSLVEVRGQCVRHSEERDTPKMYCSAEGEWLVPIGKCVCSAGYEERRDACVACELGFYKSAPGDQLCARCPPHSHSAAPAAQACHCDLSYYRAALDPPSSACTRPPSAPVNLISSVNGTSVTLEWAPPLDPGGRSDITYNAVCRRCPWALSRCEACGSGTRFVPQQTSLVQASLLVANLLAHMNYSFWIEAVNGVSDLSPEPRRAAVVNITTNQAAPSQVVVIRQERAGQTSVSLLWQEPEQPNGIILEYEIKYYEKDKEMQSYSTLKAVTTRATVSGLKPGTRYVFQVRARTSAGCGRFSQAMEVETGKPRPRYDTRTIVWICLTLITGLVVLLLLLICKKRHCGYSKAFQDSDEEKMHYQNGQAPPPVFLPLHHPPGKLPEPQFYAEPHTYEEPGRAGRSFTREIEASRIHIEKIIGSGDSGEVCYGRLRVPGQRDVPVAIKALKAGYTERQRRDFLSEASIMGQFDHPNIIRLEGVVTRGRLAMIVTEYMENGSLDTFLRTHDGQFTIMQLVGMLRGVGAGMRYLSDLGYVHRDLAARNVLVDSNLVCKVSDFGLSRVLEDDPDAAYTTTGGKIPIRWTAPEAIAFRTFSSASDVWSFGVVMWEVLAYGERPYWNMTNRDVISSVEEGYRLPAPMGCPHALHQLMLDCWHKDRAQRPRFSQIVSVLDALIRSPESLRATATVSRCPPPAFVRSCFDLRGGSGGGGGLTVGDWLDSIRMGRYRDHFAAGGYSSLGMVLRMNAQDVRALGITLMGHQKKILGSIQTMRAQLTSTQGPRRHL

[10] = biological target: Mitogen-activated protein kinase kinase kinase kinase 1 (Homo sapiens) (UniProt Q92918); assay: Selectivity interaction (KinomeScan (DiscoverX)) EUB0001049a MAP4K1; settings: at 1 µM
[11] = biological target: T3, Tyrosine-protein kinase TXK (Homo sapiens) (UniProt P42681); assay: Selectivity interaction (KinomeScan (DiscoverX)) EUB0001049a TXK; settings: at 1 µM
T3 sequence (whole entry): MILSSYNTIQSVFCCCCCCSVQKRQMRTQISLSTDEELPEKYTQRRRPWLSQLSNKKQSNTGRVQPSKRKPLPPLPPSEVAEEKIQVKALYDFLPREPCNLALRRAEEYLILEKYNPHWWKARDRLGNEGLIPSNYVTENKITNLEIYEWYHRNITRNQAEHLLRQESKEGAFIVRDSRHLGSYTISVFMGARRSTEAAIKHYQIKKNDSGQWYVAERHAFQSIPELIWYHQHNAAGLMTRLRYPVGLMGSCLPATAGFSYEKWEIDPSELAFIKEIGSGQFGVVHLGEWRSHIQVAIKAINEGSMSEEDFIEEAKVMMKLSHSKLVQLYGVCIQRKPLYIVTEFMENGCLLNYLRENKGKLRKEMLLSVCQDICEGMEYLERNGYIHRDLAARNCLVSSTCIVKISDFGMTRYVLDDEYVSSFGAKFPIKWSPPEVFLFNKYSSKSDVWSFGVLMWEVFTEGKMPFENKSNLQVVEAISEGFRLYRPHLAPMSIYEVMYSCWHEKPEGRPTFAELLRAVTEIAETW

[12] = biological target: MAP/microtubule affinity-regulating kinase 3 (Homo sapiens) (UniProt P27448); assay: Selectivity interaction (KinomeScan (DiscoverX)) EUB0000618a MARK3; settings: at 10 µM
[13] = biological target: Serine/threonine-protein kinase PLK2 (Homo sapiens, UniProt Q9NYY3); assay: Selectivity interaction (KinomeScan (DiscoverX)) EUB0001619a PLK2; settings: at 1 µM
[14] = biological target: Serine/threonine-protein kinase tousled-like 2 (Homo sapiens) (UniProt Q86UE8); assay: Selectivity interaction (ActivX KiNativ screen (ex vivo kinase selectivity in human PBMCs)) EUB0001619a TLK2; type: cell-based; settings: PBMC, at 1 µM
Chain of Serine/threonine-protein kinase tousled-like 2 (Homo sapiens) (Q86UE8 whole entry, looked up): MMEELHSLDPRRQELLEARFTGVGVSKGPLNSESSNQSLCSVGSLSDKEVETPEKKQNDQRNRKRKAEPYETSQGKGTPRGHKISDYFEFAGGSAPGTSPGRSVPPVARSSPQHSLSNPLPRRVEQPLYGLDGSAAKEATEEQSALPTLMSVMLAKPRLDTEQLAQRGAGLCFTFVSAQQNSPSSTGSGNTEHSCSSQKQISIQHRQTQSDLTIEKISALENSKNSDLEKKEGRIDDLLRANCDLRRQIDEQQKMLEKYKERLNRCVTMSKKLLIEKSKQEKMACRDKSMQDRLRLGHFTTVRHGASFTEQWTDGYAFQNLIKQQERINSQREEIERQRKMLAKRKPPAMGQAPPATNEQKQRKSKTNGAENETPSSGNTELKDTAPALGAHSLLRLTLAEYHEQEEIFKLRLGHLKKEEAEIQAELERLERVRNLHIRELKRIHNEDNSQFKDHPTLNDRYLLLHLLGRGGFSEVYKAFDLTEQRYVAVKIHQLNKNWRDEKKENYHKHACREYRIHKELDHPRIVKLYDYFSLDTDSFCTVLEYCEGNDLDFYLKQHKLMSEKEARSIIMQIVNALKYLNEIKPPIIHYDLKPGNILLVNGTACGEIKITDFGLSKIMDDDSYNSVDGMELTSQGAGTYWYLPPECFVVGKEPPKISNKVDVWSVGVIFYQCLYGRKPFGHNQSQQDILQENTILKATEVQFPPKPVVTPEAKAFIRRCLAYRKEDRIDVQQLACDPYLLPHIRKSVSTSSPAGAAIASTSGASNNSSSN

Chain of Calcium/calmodulin-dependent protein kinase type 1 (Homo sapiens) (Q14012 whole entry, looked up): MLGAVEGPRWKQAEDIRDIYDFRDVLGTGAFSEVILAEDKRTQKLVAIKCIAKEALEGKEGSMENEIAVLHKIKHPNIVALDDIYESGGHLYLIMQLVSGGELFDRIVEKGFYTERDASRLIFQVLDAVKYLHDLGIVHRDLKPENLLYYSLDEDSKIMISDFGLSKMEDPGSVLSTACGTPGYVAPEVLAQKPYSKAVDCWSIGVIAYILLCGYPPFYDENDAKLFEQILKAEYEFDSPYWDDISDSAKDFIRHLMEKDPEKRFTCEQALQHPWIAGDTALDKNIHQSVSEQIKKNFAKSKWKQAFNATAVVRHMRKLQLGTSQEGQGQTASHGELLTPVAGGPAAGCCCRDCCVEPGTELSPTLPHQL
Chain of Myosin-IIIa (Homo sapiens) (Q8NEV4 whole entry): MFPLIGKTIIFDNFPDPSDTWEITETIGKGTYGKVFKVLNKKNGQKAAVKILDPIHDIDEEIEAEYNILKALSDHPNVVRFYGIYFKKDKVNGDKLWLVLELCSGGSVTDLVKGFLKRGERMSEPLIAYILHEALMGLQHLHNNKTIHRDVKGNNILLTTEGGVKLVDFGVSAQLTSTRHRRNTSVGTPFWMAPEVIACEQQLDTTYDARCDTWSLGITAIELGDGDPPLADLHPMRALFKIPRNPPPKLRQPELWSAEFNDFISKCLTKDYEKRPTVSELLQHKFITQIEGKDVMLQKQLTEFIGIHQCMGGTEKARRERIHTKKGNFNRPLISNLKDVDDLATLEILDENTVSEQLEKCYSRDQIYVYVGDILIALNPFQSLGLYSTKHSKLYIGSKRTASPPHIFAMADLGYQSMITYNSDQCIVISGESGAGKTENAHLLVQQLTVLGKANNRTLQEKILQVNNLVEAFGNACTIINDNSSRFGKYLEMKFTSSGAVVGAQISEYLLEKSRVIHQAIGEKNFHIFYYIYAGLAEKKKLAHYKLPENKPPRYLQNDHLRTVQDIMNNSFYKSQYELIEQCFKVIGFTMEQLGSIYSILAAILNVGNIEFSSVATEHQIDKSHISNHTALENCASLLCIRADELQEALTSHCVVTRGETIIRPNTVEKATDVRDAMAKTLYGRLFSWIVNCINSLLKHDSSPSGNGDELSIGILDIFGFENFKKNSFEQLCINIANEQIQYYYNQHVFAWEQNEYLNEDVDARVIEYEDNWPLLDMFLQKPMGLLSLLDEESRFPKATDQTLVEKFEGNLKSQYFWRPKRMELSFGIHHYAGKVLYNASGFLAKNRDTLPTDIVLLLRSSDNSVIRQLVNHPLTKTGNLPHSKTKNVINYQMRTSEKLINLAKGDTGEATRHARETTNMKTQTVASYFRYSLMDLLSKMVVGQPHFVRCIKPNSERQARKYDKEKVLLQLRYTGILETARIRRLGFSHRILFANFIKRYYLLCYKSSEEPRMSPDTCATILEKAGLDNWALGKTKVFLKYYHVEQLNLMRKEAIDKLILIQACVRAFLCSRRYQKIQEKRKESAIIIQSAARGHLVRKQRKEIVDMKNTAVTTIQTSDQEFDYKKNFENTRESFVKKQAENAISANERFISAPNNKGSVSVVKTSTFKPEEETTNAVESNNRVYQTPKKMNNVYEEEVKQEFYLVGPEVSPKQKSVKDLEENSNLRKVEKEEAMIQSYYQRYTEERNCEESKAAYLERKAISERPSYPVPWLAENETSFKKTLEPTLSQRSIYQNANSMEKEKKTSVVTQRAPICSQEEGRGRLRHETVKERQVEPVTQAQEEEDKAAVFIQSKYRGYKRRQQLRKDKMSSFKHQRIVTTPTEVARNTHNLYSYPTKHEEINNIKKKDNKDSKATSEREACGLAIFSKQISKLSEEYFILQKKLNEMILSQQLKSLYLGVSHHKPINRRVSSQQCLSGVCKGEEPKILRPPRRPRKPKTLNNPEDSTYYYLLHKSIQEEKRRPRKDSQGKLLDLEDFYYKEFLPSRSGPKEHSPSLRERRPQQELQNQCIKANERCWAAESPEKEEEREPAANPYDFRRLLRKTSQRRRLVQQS
Chain of Tyrosine-protein kinase HCK (Homo sapiens) (P08631 2-526 limits assumed): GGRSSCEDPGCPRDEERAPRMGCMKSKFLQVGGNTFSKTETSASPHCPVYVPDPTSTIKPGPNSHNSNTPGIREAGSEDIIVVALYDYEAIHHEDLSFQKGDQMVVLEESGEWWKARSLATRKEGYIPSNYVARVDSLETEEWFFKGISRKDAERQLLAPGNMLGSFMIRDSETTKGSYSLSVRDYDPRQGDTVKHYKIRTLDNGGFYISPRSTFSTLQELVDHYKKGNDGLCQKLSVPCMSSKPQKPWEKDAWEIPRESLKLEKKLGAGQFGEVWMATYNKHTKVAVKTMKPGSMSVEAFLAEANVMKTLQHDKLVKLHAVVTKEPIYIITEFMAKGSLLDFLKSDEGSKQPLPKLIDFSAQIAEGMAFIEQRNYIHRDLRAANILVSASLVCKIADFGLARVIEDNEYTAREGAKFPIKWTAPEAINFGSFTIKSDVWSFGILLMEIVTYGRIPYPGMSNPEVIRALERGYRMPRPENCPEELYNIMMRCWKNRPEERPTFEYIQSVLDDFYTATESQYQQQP
Chain of MAP/microtubule affinity-regulating kinase 3 (Homo sapiens) (P27448 whole entry, looked up): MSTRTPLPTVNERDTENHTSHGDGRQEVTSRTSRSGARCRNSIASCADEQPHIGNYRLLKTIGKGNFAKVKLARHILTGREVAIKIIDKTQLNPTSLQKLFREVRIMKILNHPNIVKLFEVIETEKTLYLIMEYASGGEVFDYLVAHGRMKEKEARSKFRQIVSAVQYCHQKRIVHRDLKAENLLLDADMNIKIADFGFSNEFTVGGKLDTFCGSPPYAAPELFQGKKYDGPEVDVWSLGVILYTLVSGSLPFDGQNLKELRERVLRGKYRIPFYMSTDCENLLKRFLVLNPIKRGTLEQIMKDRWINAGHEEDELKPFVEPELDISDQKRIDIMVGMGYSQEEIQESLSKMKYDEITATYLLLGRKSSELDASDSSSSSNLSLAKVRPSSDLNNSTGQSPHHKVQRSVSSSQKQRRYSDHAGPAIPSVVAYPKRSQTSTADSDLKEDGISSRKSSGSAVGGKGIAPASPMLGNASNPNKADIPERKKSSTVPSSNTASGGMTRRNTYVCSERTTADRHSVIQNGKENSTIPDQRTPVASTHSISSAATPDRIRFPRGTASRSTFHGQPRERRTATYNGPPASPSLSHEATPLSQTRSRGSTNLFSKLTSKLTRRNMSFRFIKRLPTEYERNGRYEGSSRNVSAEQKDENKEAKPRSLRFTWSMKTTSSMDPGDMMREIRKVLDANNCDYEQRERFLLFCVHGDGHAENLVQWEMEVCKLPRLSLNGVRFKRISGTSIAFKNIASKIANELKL
Chain of Serine/threonine-protein kinase haspin (Q8TF76 whole entry): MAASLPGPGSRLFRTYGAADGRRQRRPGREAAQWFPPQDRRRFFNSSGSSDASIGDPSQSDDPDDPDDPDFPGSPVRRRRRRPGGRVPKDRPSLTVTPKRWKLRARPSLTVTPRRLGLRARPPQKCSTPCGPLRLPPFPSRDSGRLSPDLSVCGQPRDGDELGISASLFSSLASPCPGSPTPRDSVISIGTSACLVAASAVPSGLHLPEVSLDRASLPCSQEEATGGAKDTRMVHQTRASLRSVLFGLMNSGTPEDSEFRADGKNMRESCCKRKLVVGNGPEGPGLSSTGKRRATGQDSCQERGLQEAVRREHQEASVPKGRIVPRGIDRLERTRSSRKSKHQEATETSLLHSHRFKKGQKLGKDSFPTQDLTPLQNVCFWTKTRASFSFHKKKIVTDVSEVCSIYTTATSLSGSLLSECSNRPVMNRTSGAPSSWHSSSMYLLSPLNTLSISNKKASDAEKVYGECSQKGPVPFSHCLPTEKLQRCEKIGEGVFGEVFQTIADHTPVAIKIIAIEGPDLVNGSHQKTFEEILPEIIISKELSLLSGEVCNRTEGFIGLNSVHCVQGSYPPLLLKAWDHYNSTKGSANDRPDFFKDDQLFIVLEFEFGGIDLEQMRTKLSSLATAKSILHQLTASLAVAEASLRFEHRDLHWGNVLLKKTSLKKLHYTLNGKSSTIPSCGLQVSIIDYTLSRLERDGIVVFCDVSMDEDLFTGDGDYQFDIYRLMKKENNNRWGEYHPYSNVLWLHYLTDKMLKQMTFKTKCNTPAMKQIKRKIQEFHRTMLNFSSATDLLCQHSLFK

`CN(C(=O)c1cnn2cccnc12)c1cc2c(cc1N1CCOCC1)C(=O)N(C[C@@H](F)C(C)(C)O)C2` was tested, and the dTM [1] was -0.4 K and the dTM [2] was 1.5 K.

Compound `Nc1cnc(N2CCc3cc(S(=O)(=O)Nc4c(F)cc(Cl)cc4F)cc(N4CCCC4=O)c32)nc1` [TP-020n] has a % of control [3] of 100%.

Work on `CCc1cc(Nc2nccc(-c3c(-c4ccc(OC)c(C(=O)Nc5c(F)cccc5F)c4)nc4ccccn34)n2)c(OC)cc1N1CCC(N2CCN(S(C)(=O)=O)CC2)CC1` yielded a % of inhibition [4] of 81%.

With `Cn1cc(-n2cnc3c(NCc4nc5cc(Cl)c(Cl)cc5[nH]4)nc(N4CCOCC4)nc32)cn1` the % of inhibition [5] was -42.6%.

`CCc1cccc(CC)c1NC(=O)c1nn(C)c2c1CCc1cnc(Nc3ccc(C(=O)NC4CCN(C)CC4)cc3OC(F)(F)F)nc1-2` was tested, and the IC50 [6] was > 10 µM.

With `CC[C@@H]1[C@H](F)C(=O)N[C@@H]1COc1nccc2cc(C(N)=O)c(OC)cc12` [ZIMLOVISERTIB] the % of inhibition [7] was -2.3% and the % of inhibition [8] was 15.8%.

`CNC(=O)Nc1ccc(-c2nc(N3CC4CCC(C3)O4)c3cnn(C4CCC5(CC4)OCCO5)c3n2)cc1` gave a % of inhibition [9] of 24%.

Work on `COc1cc(Nc2nc(C)cc(-c3cnn4nc(OC)ccc34)n2)cc(C(F)(F)F)c1` yielded a % of control [10] of 86% and a % of control [11] of 91%.

`O[C@H]1CC[C@H](Nc2ncc3nc(Nc4c(F)cc(F)cc4F)n([C@H]4CCOC4)c3n2)CC1` gave a % of control [12] of 97%.

Compound `N#Cc1cccc(-c2c[nH]c3ncnc(N4CCOCC4)c23)c1` has a % of control [13] of 100% and a % of inhibition [14] of 6%.
